Entries after “also recorded” stand apart in the source; their conditions may differ. Read-outs that look alike come from different tables or passages of the source. Where only a bound is given, the exact number is not on record here.

Series [1] deals with T1, mitochondrial DNA polymerase pol γ (Homo sapiens, UniProt P54098).
T1 sequence (P54098 1-1239): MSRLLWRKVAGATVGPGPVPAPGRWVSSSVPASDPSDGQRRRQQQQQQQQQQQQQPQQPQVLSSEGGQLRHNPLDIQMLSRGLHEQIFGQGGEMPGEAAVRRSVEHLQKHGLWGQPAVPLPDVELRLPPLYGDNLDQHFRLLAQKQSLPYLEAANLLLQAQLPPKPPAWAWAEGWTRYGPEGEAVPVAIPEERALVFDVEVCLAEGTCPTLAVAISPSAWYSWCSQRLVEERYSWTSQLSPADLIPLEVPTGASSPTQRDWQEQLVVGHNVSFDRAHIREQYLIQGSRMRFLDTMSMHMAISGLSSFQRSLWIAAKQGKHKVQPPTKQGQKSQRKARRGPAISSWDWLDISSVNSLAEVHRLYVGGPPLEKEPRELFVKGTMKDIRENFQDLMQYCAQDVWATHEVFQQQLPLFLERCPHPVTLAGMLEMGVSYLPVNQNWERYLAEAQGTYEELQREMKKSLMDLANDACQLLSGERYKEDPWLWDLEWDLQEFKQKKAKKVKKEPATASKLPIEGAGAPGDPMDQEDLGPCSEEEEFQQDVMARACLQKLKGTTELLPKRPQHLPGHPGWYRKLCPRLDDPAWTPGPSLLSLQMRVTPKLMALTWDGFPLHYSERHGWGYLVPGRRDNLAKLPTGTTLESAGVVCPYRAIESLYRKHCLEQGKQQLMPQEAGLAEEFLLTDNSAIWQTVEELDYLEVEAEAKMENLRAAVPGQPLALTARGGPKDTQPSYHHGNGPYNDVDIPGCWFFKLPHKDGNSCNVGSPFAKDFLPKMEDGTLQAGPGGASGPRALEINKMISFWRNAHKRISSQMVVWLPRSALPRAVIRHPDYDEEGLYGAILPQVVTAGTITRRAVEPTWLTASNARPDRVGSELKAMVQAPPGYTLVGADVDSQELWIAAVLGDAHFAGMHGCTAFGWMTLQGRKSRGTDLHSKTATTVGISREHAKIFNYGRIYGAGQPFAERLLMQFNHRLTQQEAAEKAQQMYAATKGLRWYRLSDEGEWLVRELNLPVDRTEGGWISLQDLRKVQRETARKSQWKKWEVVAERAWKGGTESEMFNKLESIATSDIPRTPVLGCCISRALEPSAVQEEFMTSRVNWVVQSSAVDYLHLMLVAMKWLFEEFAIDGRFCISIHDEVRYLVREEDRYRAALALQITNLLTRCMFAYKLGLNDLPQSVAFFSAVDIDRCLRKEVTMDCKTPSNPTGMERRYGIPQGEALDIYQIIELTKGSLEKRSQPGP
In words: Inhibition of mitochondrial DNA polymerase pol γ. It is filed as biochemical. The following applies: comparison nucleoside triphosphates; read-out: DNA pol γ mean IC50.

Series [2] concerns ZIKV strain MR766 (Genbank LC002520). In words: Antiviral activity against ZIKV replication in cells. The class given is cell-based, Zika virus. The protocol: (§1) The human hepatoma cell line Huh-7, are cultured in DMEM without phenol-red (Cellgro Mediatech, Cat #10-013-CV containing 4.5 g/l glucose, L-glutamine & sodium pyruvate). The medium is further supplemented with 10% (v/v) FBS (ATLAS Cat # F-0500-A, lot#850114A) and 1% (vlv) penicillin/streptomycin (Cellgro Mediatech #30-022-CI). Cells are maintained at 37° C. in a humidified 5% CO2 atmosphere. Zika virus representative strain titers are measured on BHK-21 cells, using a standard plaque assay procedure. For the determination of EC50 of nucleoside in the antiviral assay, Huh-7 cells are plated in white 96-well plates in MEM media supplemented with 10% FBS and 1% penicillin/streptomycin. After incubation for 24 h, the cells are infected at a multiplicity of infection (MOI) of 0.5 for 2 h at 37° C. Ten three-fold dilutions of compounds are prepared in the same media supplemented with 1% DMSO. After the 2 h adsorption phase, the virus is aspirated off and diluted compound is added to four wells each. Huh-7 cells are plated as described above and exposed to the same concentration range of compounds. Untreated cells are carried along as a control. After a 3-day incubation at 37° C., the cell viability is determined using Cell-titer Glo™ reagent (Promega, Madison, Wis.) that is added to each well and incubated for 5 min. Plates are analyzed using a Thermo Luminoskan plate reader (Waltham, Mass.).

The nature of series [3]: Cell viability (CC50) alongside ZIKV antiviral assay, Cell-titer Glo. The class given is cell-based. The following applies: human, Huh-7 cells. Here is the method: as §1
Series [4] has as its system HCV replicon of genotype 1b (Con1). In words: HCV replicon genotype 1b antiviral activity. It is filed as cell-based. Particulars: Hepatitis C virus; replicon genotype 1b (Con1); read-out: HCV GT1b EC50. On the technique in general: In antiviral work, replicon cells carry a viral genome segment that copies itself.
Series [5] deals with Chikungunya replicon (CHIKV strain LR2006 OPY-1, GenBank EU224270). In words: Chikungunya replicon antiviral activity. It is filed as cell-based. The following applies: Chikungunya virus. The text has this:
(§2) FIG. 3. Antiviral activity of I-3 against ZIKV and CHIKV replication and cell viability determined in Huh-7 cell derived CHIKV replicon cells by intracellular ATP quantification (CellTiter-Glo).
(§3) Antiviral activity of I-3 (prodrug of 4AU) against ZIKV and CHIKV replication and cell viability determined in Huh-7 cell derived CHIKV replicon cells by intracellular ATP quantification (CellTiter-Glo).

A further series in a line: in vitro. It is filed as cell-based. Particulars: human; Huh-7 cell derived CHIKV replicon cells.
Text: as §2, §3

In a further series the target is T2, human RNA polymerase I (Homo sapiens, UniProt O95602+Q9H9Y6).
T2 construct: endogenous in cells; host or cells: HeLa
In words: RNA polymerase I specific reporter gene assay in HeLa cells. It is filed as cell-based. The following applies: 10 or 100 μM (highest soluble concentrations). For orientation: A reporter such as luciferase makes a cellular process visible.

For another series, the target named is T3, human RNA polymerase II (Homo sapiens, UniProt P24928+P30876).
T3 construct: endogenous in cells; host or cells: HeLa
In words: RNA polymerase II specific reporter gene assay in HeLa cells. It is filed as cell-based. The following applies: 10 or 100 μM (highest soluble concentrations).

In the next series the target is T4, human RNA polymerase III (Homo sapiens, UniProt O14802+Q9NW08).
T4 construct: endogenous in cells; host or cells: HeLa
In words: RNA polymerase III specific reporter gene assay in HeLa cells. It is filed as cell-based. Particulars: 10 or 100 μM (highest soluble concentrations).

A short description of series [6]: Cytotoxicity (CC50) alongside HCV GT1b replicon assay. The following applies: HCV GT1b (Con1) replicon cells.
The test system of a further series is ZIK-V-RLuc. In words: Renilla Luciferase (Rluc) assay, % infection of ZIK-V-RLuc. The following applies: Zika virus, 72 h, read-out: IC50 Zika. It is filed as cell-based. Here is the method:
FIG. 1. Graph of % infection of ZIK-V-RLuc at 72 h.p.i. vs. IC50 concentration (μM) of compound I-36.
FIG. 2. Graph of % infection of ZIK-V-RLuc at 72 h.p.i. vs. IC50 concentration (μM) of compound I-37.
Single Epimers I-36 and I-37, of I-1 were tested in the Rluc assay at 72 h.p.i. for % inhibition vs. concentration of compound (FIGS. 1-2): […]

In the next series the test system is HepG2 cells. In words: Mitochondrial toxicity in HepG2 cells (COX-I / SDH-A ratio). Particulars: up to 11-day incubation. The text has this: Mean values shown as individual data points; standard deviations as error bars (FIG. 4).
The format of series [7] is in vitro ADME, human. Here is the method:
The formation of 4AUTP triphosphate is determined in human cells (Huh-7 cells, PBMC), and representative mouse, rat, dog and cynomolgus monkey cells. The intracellular triphosphate concentration is determined using LC-MS/MS. In human cells, the time and concentration dependent formation of 4AUTP triphosphate is determined, as well as the half-life after removal of all extracellular prodrug by exchange of cell culture medium. Analysis of intracellular nucleoside phosphates is conducted using well-established methods.

The conditions of series [8]: 13 week, GLP; cited from earlier work.
For series [9] the following is noted: 13 week, GLP; cited from earlier work. The source holds these as a separate data set.
A further series deals with HCV replication. Particulars: humans; cited from earlier work.
For series [10] the following is noted: human, in vivo; cited from earlier work.

Broadly, the IC50 is the midpoint of a concentration-inhibition curve. As for `Cc1cn([C@H]2C[C@H](N=[N+]=[N-])[C@@H](COP(=O)(O)OP(=O)(O)OP(=O)(O)O)O2)c(=O)[nH]c1=O` [AZT triphosphate], the IC50 in [1] stood at 2.47 µM.
The EC50 is the concentration that produces a half-maximal response. As a reminder, the CC50 is the concentration that lowers cell viability or growth by half. As for `CCOC(=O)[C@H](C)NP(=O)(OC[C@@]1(N=[N+]=[N-])O[C@@H](n2ccc(=O)[nH]c2=O)[C@H](O)[C@@H]1O)Oc1cccc2ccccc12` (stereo partly drawn) [Compound I-3, ethyl ((((2R,3S,4R,5R)-2-azido-5-(2,4-dioxo-3,4-dihydropyrimidin-1(2H)-yl)-3,4-dihydroxytetrahydrofuran-2-yl)methoxy)(naphthalen-1-yloxy)phosphoryl)-L-alaninate], the concentration for a half-maximal effect (EC50) is 0.48 µM in series [2] (Zika virus, ZIKV strain MR766, human Huh-7 or mouse MEF cells); 0.4 µM in series [4]; 4.1 µM in series [5]. Further, the “antiviral inhibition potency (EC50), in words” value in [2] (summary statement) is given as “submicromolar”. The CC50 at 3 day in [3] (cytotoxicity column of the ZIKV assay, read-out: ZIKV CC50) was more than 100 µM; in [3] (summary statement, cytotoxicity in cell culture, read-out: Huh-7 cell CC50), more than 100 µM. For the same compound, the CC50 (in the series “in vitro”; in [6]) was more than 100 µM throughout. Besides, the “inhibition of human RNA polymerase I activity (reporter gene)” value at human RNA polymerase I was “did not inhibit”. Besides, the “inhibition of human RNA polymerase II activity (reporter gene)” value on human RNA polymerase II is recorded as “did not inhibit”. Further, the “inhibition of human RNA polymerase III activity (reporter gene)” value against human RNA polymerase III is recorded as “did not inhibit”.
Regarding `C[C@H](N[P@](=O)(OC[C@@]1(N=[N+]=[N-])O[C@@H](n2ccc(=O)[nH]c2=O)[C@H](O)[C@@H]1O)Oc1cccc2ccccc12)C(=O)OCc1ccccc1` [Compound I-37, benzyl ((S)-(((2R,3S,4R,5R)-2-azido-5-(2,4-dioxo-3,4-dihydropyrimidin-1(2H)-yl)-3,4-dihydroxytetrahydrofuran-2-yl)methoxy)(naphthalen-1-yloxy)phosphoryl)-L-alaninate], the IC50 with ZIK-V-RLuc stood at 1.65 µM.
Still for that read-out and setting: the same measure for `C[C@H](N[P@@](=O)(OC[C@@]1(N=[N+]=[N-])O[C@@H](n2ccc(=O)[nH]c2=O)[C@H](O)[C@@H]1O)Oc1cccc2ccccc12)C(=O)OCc1ccccc1` [Compound I-36, benzyl ((R)-(((2R,3S,4R,5R)-2-azido-5-(2,4-dioxo-3,4-dihydropyrimidin-1(2H)-yl)-3,4-dihydroxytetrahydrofuran-2-yl)methoxy)(naphthalen-1-yloxy)phosphoryl)-L-alaninate]: 1.1 µM.
For the compound `Nc1ccn([C@@H]2CS[C@H](COP(=O)(O)OP(=O)(O)OP(=O)(O)O)O2)c(=O)n1` [lamivudine triphosphate], the IC50 in [1] came out at 149 µM.
In the case of `[N-]=[N+]=N[C@]1(CO)O[C@@H](n2ccc(=O)[nH]c2=O)[C@H](O)[C@@H]1O` [Compound 4AU, 4′-azidouridine], the EC50 in [4] is 217 µM; in series [5] it was more than 100 µM. Also, the CC50 (in the series “in vitro”; in series [6]) was more than 1000 µM throughout. Moreover, in the series on HepG2 cells, the mitochondrial toxicity entry was “No mitochondrial toxicity; also recorded: lack of mitochondrial toxicity”. For the same compound, the “conversion to 4AU-triphosphate (4AUTP)” value in series [7] is “not efficiently converted”. Further, in series [8], the “safety in chronic toxicity study, rats” value is “safety of 4AU has already been demonstrated”. Also, the “safety in chronic toxicity study, monkeys” value in series [9] is recorded as “safety of 4AU has already been demonstrated”. For the same compound, in the series on HCV replication, the “antiviral activity against HCV replication in Phase 1 study” value is on record as “significant antiviral activity”. Also, in series [10], the “safety in Phase 1 clinical study” value is “safety of 4AU has already been demonstrated”.

The record behind these values is patent US20170232031A1, “Inhibitors of Zika Virus” (Riboscience LLC, priority 2016, published 2017).
